This is an account of results in patent publication US12338237B2, “Derivatives having 1,2,3,4-tetrahydronaphthalene moiety or pharmaceutically acceptable salt thereof and pharmaceutical compositions comprising the same” (YUHAN CORPORATION, priority 2019, dated 2025).

Read-outs that look alike come from different tables or passages of the source.

In test [1] the target is glucosylceramide synthase (GCS) (Homo sapiens (Human), UniProt Q16739). As to the kind of experiment: Evaluation of inhibitory activities against GCS (enzyme reaction with A549 cell lysate, NBD C6-ceramide, HPLC fluorescence). The class given is biochemical. The conditions noted are these: GCS activity in A549 cell lysate, 37° C. for 90 minutes. The essentials:
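Lysate of A549 cells in 50 mM HEPES pH 7.3 incubated with test compound and NBD C6-ceramide at 37 °C for 90 min; lipids extracted with chloroform/methanol and GlcCer and ceramide peaks quantified by HPLC fluorescence. Activity from GlcCer area fraction, normalised between DMSO and ibiglustat controls.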

In a further test the test system is GM1 production. As to the kind of experiment: cells. The class given is cell-based.

Chain of glucosylceramide synthase (GCS) (Q16739 whole entry, looked up): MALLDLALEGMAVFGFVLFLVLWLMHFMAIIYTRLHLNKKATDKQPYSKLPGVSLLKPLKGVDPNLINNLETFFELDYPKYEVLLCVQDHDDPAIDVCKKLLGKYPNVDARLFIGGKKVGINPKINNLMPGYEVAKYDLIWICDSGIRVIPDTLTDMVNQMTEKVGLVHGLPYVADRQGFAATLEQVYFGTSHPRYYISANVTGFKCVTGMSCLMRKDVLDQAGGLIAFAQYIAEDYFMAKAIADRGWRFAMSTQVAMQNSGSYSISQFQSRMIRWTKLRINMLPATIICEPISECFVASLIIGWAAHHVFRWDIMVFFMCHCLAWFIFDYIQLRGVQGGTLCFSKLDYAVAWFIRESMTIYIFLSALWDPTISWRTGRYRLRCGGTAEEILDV

For `CCCc1ccc(-c2cc3c(cc2F)C(NC(=O)O[C@@H]2CN4CCC2CC4)C(C)(C)CC3)cc1` (stereo partly drawn) [Example 229, (S)-quinuclidin-3-yl (7-fluoro-2,2-dimethyl-6-(4-propylphenyl)-1,2,3,4-tetrahydronaphthalen-1-yl)carbamate], the IC50 in test [1] amounted to 0.31 nM; with GM1 production (Homo sapiens, Jurkat, 72 h) it was 1.7 nM.

Consider `CC(C)Cc1ccc(-c2cc3c(cc2F)C(NC(=O)O[C@@H]2CN4CCC2CC4)C(C)(C)CC3)cc1` (stereo partly drawn) [Example 230, (S)-quinuclidin-3-yl (7-fluoro-6-(4-isobutylphenyl)-2,2-dimethyl-1,2,3,4-tetrahydronaphthalen-1-yl)carbamate], for which the IC50 was found to be 0.3 nM in test [1] and 1.8 nM in the test on GM1 production (Homo sapiens, Jurkat, 72 h).

For `CC(C)(C)Oc1cc(-c2cc3c(cc2F)C(NC(=O)O[C@@H]2CN4CCC2CC4)C(C)(C)CC3)ccn1` (stereo partly drawn) [Example 231], the IC50 in test [1] stood at 0.86 nM; with GM1 production (read-out: IC50), 3.8 nM.

With `CC(C)Oc1ccc(-c2cc3c(cc2F)C(NC(=O)O[C@@H]2CN4CCC2CC4)C(C)(C)CC3)cc1` (stereo partly drawn) [Example 232, (S)-quinuclidin-3-yl (7-fluoro-6-(4-isopropoxyphenyl)-2,2-dimethyl-1,2,3,4-tetrahydronaphthalen-1-yl)carbamate], the 50% inhibitory concentration (IC50) came out at 0.29 nM in test [1] and 2.7 nM in the test with GM1 production (Homo sapiens, Jurkat, 72 h).

`COc1ccc(-c2cc3c(cc2OC)C(NC(=O)O[C@@H]2CN4CCC2CC4)C(C)(C)CC3)cc1F` (stereo partly drawn) [Example 233, (S)-quinuclidin-3-yl (6-(3-fluoro-4-methoxyphenyl)-7-methoxy-2,2-dimethyl-1,2,3,4-tetrahydronaphthalen-1-yl)carbamate]: the IC50 in test [1] was determined as 0.65 nM; in the test on GM1 production (Homo sapiens, Jurkat, 72 h), 21.7 nM.

Turning to `CCCOc1c(C)cc(-c2cc3c(cc2OC)C(NC(=O)O[C@@H]2CN4CCC2CC4)C(C)(C)CC3)cc1C` (stereo partly drawn) [Example 234, (S)-quinuclidin-3-yl (6-(3,5-dimethyl-4-propoxyphenyl)-7-methoxy-2,2-dimethyl-1,2,3,4-tetrahydronaphthalen-1-yl)carbamate], the IC50 was determined as 1.45 nM in test [1] and 14.9 nM with GM1 production (Homo sapiens, Jurkat, 72 h).

For the molecule `CCCc1ccc(-c2cc3c(cc2OC)C(NC(=O)O[C@@H]2CN4CCC2CC4)C(C)(C)CC3)cc1` (stereo partly drawn) [Example 235, (S)-quinuclidin-3-yl (7-methoxy-2,2-dimethyl-6-(4-propylphenyl)-1,2,3,4-tetrahydronaphthalen-1-yl)carbamate], the IC50 worked out at 0.19 nM in test [1] and 3.2 nM in the test on GM1 production (Homo sapiens, Jurkat, 72 h).

On to `COc1cc2c(cc1-c1ccc(CC(C)C)cc1)CCC(C)(C)C2NC(=O)O[C@@H]1CN2CCC1CC2` (stereo partly drawn) [Example 236, (S)-quinuclidin-3-yl (6-(4-isobutylphenyl)-7-methoxy-2,2-dimethyl-1,2,3,4-tetrahydronaphthalen-1-yl)carbamate], for which the IC50 in test [1] turned out to be 0.53 nM; in the test on GM1 production (Homo sapiens, Jurkat, 72 h), 3.2 nM.

`COc1cc2c(cc1-c1ccnc(OC(C)(C)C)c1)CCC(C)(C)C2NC(=O)O[C@@H]1CN2CCC1CC2` (stereo partly drawn) [Example 237, (S)-quinuclidin-3-yl (6-(2-(tert-butoxy)pyridin-4-yl)-7-methoxy-2,2-dimethyl-1,2,3,4-tetrahydronaphthalen-1-yl)carbamate]: the IC50 in test [1] stood at 1.84 nM; in the test on GM1 production (Homo sapiens, Jurkat, 72 h), 18.8 nM.

Take `COc1cc2c(cc1-c1ccc(OC(C)C)cc1)CCC(C)(C)C2NC(=O)O[C@@H]1CN2CCC1CC2` (stereo partly drawn) [Example 238, (S)-quinuclidin-3-yl (6-(4-isopropoxyphenyl)-7-methoxy-2,2-dimethyl-1,2,3,4-tetrahydronaphthalen-1-yl)carbamate]: the IC50 in test [1] worked out at 0.55 nM; in the test with GM1 production (Homo sapiens, Jurkat, 72 h), 3.5 nM.

Consider “(S)-quinuclidin-3-yl (2,2-dimethyl-7-(2-(p-tolyl)-1,2,3,4-tetrahydronaphthalen-1-yl)carbamate [Example 163]”, for which the IC50 in test [1] amounted to 15.3 nM; in the test on GM1 production (read-out: IC50), 55.1 nM.

As for “(S)-quinuclidin-3-yl (7-(3-(chlorophenyl)-1,2,3,4-tetrahydronaphthalen-1-yl)carbamate [Example 59]”, the IC50 was 18.9 nM in test [1] and 153 nM in the test on GM1 production (read-out: IC50).
